Drawing on PubChem BioAssay AID330 (DTP/NCI, 2004), this text covers T/C for 24 compounds.

This experiment has as its system P388 leukemia ip, CD2F1 mice, survival T/C. The experiment can be described thus: NCI In Vivo Anticancer Drug Screen. Data for tumor model P388 Leukemia (intraperitoneal) in CD2F1 (CDF1) mice. The following applies: endpoint: median survival time, higher = longer survival. In outline: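 Mice carrying the transplanted tumor received test compound or vehicle. Survival was recorded in each group, and the value is the treated-group measurement divided by that of the vehicle-treated control group.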

[1] abbreviates: dose: 50.0 mg/kg/injection, schedule: Q01DX005 (ip), vehicle: Klucel (hydroxypropylcellulose) (HPC).
Where [2] appears, read: dose: 100.0 mg/kg/injection, schedule: Q01DX005 (ip), vehicle: Klucel (hydroxypropylcellulose) (HPC).
Where [3] appears, read: dose: 200.0 mg/kg/injection, schedule: Q01DX005 (ip), vehicle: Klucel (hydroxypropylcellulose) (HPC).
Setting [4] is: dose: 12.5 mg/kg/injection, schedule: Q01DX009 (ip), vehicle: saline.
The mark [5] stands for this setting: dose: 25.0 mg/kg/injection, schedule: Q01DX009 (ip), vehicle: saline.
[6] abbreviates: dose: 50.0 mg/kg/injection, schedule: Q01DX009 (ip), vehicle: saline.
The mark [7] stands for this setting: dose: 100.0 mg/kg/injection, schedule: Q01DX009 (ip), vehicle: saline.
[8] abbreviates: dose: 12.5 mg/kg/injection, schedule: Q01DX005 (ip), vehicle: saline with Tween-80.
[9] abbreviates: dose: 25.0 mg/kg/injection, schedule: Q01DX005 (ip), vehicle: saline with Tween-80.
[10] abbreviates: dose: 50.0 mg/kg/injection, schedule: Q01DX005 (ip), vehicle: saline with Tween-80.
[11] abbreviates: dose: 200.0 mg/kg/injection, schedule: Q01DX009 (ip), vehicle: saline.

The structures appear in SMILES notation. Several values for one entry are separate records, joined by “and”; a condition that tells them apart may be missing. Equal entries are not always repeated. Inconclusive results and toxic doses are left out.

Take `O=NN(CCOCCCl)C(=O)NC1CCCCC1`: the T/C by setting is: (dose: 6.25 mg/kg/injection, schedule: Q01DX009 (ip), vehicle: water) 100 % of control; (dose: 12.5 mg/kg/injection, schedule: Q01DX009 (ip), vehicle: water) 100 % of control; (dose: 25.0 mg/kg/injection, schedule: Q01DX009 (ip), vehicle: water) 107 % of control; (dose: 200.0 mg/kg/injection, schedule: Q01DX009 (ip), vehicle: water) 152 % of control.
With `N#CCc1c(-c2ccccc2)c(-c2ccccc2)c2n1CCC2`, the T/C was 98 % of control under setting [1], 99 % of control under setting [2] and 96 % of control under setting [3].
As to `COc1ccc(CS(=O)(=O)c2cnc(N/N=C/c3ccc([N+](=O)[O-])o3)nc2N)c(OC)c1`, the T/C is 94 % of control (dose: 100.0 mg/kg/injection, schedule: Q01DX001 (ip), vehicle: saline); 94 % of control (dose: 200.0 mg/kg/injection, schedule: Q01DX001 (ip), vehicle: saline); 92 % of control (dose: 400.0 mg/kg/injection, schedule: Q01DX001 (ip), vehicle: saline).
As for `C1CNCCN1`, the T/C was 113 % of control and 96 % of control under setting [4]; 93 % of control (dose: 12.5 mg/kg/injection, schedule: Q01DX009 (ip), vehicle: suspension in saline); 114 % of control and 96 % of control under setting [5]; 94 % of control and 97 % of control under setting [6]; 89 % of control under setting [7]; 97 % of control (dose: 100.0 mg/kg/injection, schedule: Q01DX009 (ip), vehicle: suspension in saline). For the same compound, the T/C (dose: 150.0 mg/kg/injection, schedule: Q01DX009 (ip), vehicle: saline) was 100 % of control and 114 % of control; the T/C (dose: 150.0 mg/kg/injection, schedule: Q01DX009 (ip), vehicle: suspension in saline) is 93 % of control.
For `CCCC[As](CCCC)SCC1OC(OC(C)=O)C(OC(C)=O)C(OC(C)=O)C1OC(C)=O` (stereo not drawn), the T/C was 113 % of control (dose: 50.0 mg/kg/injection, schedule: Q01DX009 (ip), vehicle: Klucel (hydroxypropylcellulose) (HPC)) and 92 % of control (dose: 100.0 mg/kg/injection, schedule: Q01DX009 (ip), vehicle: Klucel (hydroxypropylcellulose) (HPC)).
For the compound `N=c1c2c(ncn1CCc1ccccc1)CCN(Cc1ccccc1)C2`, the T/C reads like this: (dose: 20.0 mg/kg/injection, schedule: Q01DX009 (ip), vehicle: saline with Tween-80) 91 % of control; (dose: 40.0 mg/kg/injection, schedule: Q01DX009 (ip), vehicle: saline with Tween-80) 94 % of control.
In the case of `COc1ccc2c(c1OC)C(=O)O/C2=C/c1c(CCN(C)C)cc2c(c1O)OCO2`, the T/C was 104 % of control (dose: 53.0 micrograms/kg/injection, schedule: Q01DX005 (ip), vehicle: Klucel (hydroxypropylcellulose) (HPC)); 91 % of control (dose: 105.0 micrograms/kg/injection, schedule: Q01DX005 (ip), vehicle: Klucel (hydroxypropylcellulose) (HPC)); 96 % of control (dose: 210.0 micrograms/kg/injection, schedule: Q01DX005 (ip), vehicle: Klucel (hydroxypropylcellulose) (HPC)); 102 % of control (dose: 420.0 micrograms/kg/injection, schedule: Q01DX005 (ip), vehicle: Klucel (hydroxypropylcellulose) (HPC)).
Consider `NC1CC1N` (stereo not drawn), for which the T/C is, setting by setting: (dose: 6.25 mg/kg/injection, schedule: Q01DX009 (ip), vehicle: saline) 101 % of control; (dose: 12.5 mg/kg/injection, schedule: Q01DX001 (ip), vehicle: saline) 107 % of control; under setting [4], 101 % of control; (dose: 25.0 mg/kg/injection, schedule: Q01DX001 (ip), vehicle: saline) 107 % of control; under setting [5], 100 % of control; (dose: 50.0 mg/kg/injection, schedule: Q01DX001 (ip), vehicle: saline) 101 % of control.
On to `CC(=O)NC(C(=O)O)C(C)(C)S` (stereo not drawn), for which the T/C by setting is: under setting [1], 100 % of control; under setting [2], 100 % of control; under setting [3], 95 % of control.
On to `C[Si]1(C)O[Si](C)(C)N(N)P(=S)(Oc2ccccc2)N1N`, for which the T/C was 101 % of control under setting [8]; 108 % of control under setting [9]; 104 % of control and 111 % of control under setting [10].
On to `S=C1NCC[Se]1`, for which the T/C (dose: 6.25 mg/kg/injection, schedule: Q01DX009 (ip), vehicle: DMSO) was 103 % of control and the T/C (dose: 12.5 mg/kg/injection, schedule: Q01DX009 (ip), vehicle: DMSO) is 105 % of control.
Consider `Cc1[nH]n(-c2cc(S(=O)(=O)O)ccc2Cl)c(=O)c1N=Nc1ccc(C(=O)Nc2ccc(S(=O)(=O)O)cc2)cc1`, for which the T/C reads like this: under setting [1], 99 % of control; under setting [2], 92 % of control; under setting [3], 99 % of control.
`CN1CCC(C(C)(C)C)CC1`: the T/C reads like this: (dose: 25.0 mg/kg/injection, schedule: Q01DX005 (ip), vehicle: Klucel (hydroxypropylcellulose) (HPC)) 89 % of control; under setting [1], 94 % of control; under setting [2], 93 % of control; under setting [3], 98 % of control.
In the case of `CCCCOc1cc2c(cc1C(C)c1ccccc1)OCO2` (stereo not drawn), the T/C was 94 % of control under setting [8]; 91 % of control under setting [9]; 101 % of control and 90 % of control under setting [10].
Regarding `COc1ccc(-c2coc3cc(OC4OC(CO)C(O)C(O)C4O)cc(O)c3c2=O)cc1` (stereo not drawn), the T/C is 98 % of control (dose: 25.0 mg/kg/injection, schedule: Q01DX009 (ip), vehicle: saline with Tween-80); 92 % of control (dose: 50.0 mg/kg/injection, schedule: Q01DX009 (ip), vehicle: saline with Tween-80); 94 % of control (dose: 100.0 mg/kg/injection, schedule: Q01DX009 (ip), vehicle: saline with Tween-80).
For `CCC(C)(O)P(=O)(O)O` (stereo not drawn), the T/C runs as follows: under setting [6], 98 % of control; under setting [7], 98 % of control; under setting [11], 95 % of control.
For the compound `CNC(=O)c1nn(C)c(=O)[nH]c1=O`, the T/C is, setting by setting: (dose: 50.0 mg/kg/injection, schedule: Q01DX005 (ip), vehicle: saline) 97 % of control; (dose: 100.0 mg/kg/injection, schedule: Q01DX005 (ip), vehicle: saline) 103 % of control; (dose: 200.0 mg/kg/injection, schedule: Q01DX005 (ip), vehicle: saline) 96 % of control.
Turning to `CCOC(CN/C(=C/c1ccc2ccccc2[n+]1C)SC)OCC`, the T/C by setting is: (dose: 15.0 mg/kg/injection, schedule: Q01DX005 (ip), vehicle: saline with Tween-80) 117 % of control; (dose: 30.0 mg/kg/injection, schedule: Q01DX005 (ip), vehicle: saline with Tween-80) 121 % of control.
With `COC(=O)[C@H]1[C@H]2C[C@@H]3c4[nH]c5cc(OC)ccc5c4CCN3C[C@H]2C[C@@H](OC(=O)c2cccc(N)c2)[C@@H]1OC`, the T/C reads like this: under setting [10], 101 % of control; (dose: 100.0 mg/kg/injection, schedule: Q01DX005 (ip), vehicle: saline with Tween-80) 97 % of control; (dose: 200.0 mg/kg/injection, schedule: Q01DX005 (ip), vehicle: saline with Tween-80) 97 % of control.
Turning to `C1COCCN2CCOCCOCCN(CCO1)CCOCC2`, the T/C is, setting by setting: under setting [6], 109 % of control; under setting [7], 106 % of control; under setting [11], 107 % of control.
Consider `COC(=O)C1C2CC3c4[nH]c5cc(OC)ccc5c4CCN3CC2CC(O)C1OC` (stereo not drawn), for which the T/C is 97 % of control under setting [1] and 97 % of control under setting [2].
Take `CN(CCc1nnnn1C)/N=C\C=N\N(C)CCc1nnnn1C`: the T/C reads like this: (dose: 50.0 mg/kg/injection, schedule: Q01DX001 (ip), vehicle: Klucel (hydroxypropylcellulose) (HPC)) 112 % of control; (dose: 100.0 mg/kg/injection, schedule: Q01DX001 (ip), vehicle: Klucel (hydroxypropylcellulose) (HPC)) 112 % of control; (dose: 200.0 mg/kg/injection, schedule: Q01DX001 (ip), vehicle: Klucel (hydroxypropylcellulose) (HPC)) 97 % of control.
Consider `CS(=O)(=O)c1snc(N)c1C#N`, for which the T/C runs as follows: under setting [8], 106 % of control; under setting [9], 101 % of control; under setting [10], 102 % of control.
Consider `OC1CC2c3ccccc3C1C1CCCCN21` (stereo not drawn), for which the T/C runs as follows: (dose: 12.5 mg/kg/injection, schedule: Q04DX002 (ip), vehicle: saline) 106 % of control; (dose: 25.0 mg/kg/injection, schedule: Q04DX002 (ip), vehicle: saline) 109 % of control; (dose: 50.0 mg/kg/injection, schedule: Q04DX002 (ip), vehicle: saline) 106 % of control.
